Laboratory results: ChEMBL document CHEMBL1122128, “Quinazolines and 1,4-benzodiazepines. 90. Structure-activity relationship between substituted 2-amino-N-(2-benzoyl-4-chlorophenyl)acetamides and 1,4-benzodiazepinones” (J Med Chem, 1982)

Experiments:
[1] = target: GABA-A receptor; anion channel; test: In vitro displacement of [3H]-diazepam from GABA-A Benzodiazepine receptor; assay type: protein-complex assay
Mus musculus = test: Dose that prevents convulsions in 50% of the CF1 male mice tested after administration of 70 mg/kg of metrazole by intravenous route; assay type: functional
[2] = Lethal dose was determined after intraperitoneal administration in mice; assay type: toxicity, organism-based; settings: mouse, in vivo, ip

| SMILES | IC50 [1] | ED50 (Mus musculus) | LD50 [2] |
| --- | --- | --- | --- |
| Cl.NCC(=O)Nc1ccc(Cl)cc1C(=O)c1c(Cl)cccc1Cl | 1000 nM | > 400 mg/kg |  |
| CN(C(=O)CN)c1ccc(Cl)cc1C(=O)c1c(Cl)cccc1Cl.Cl | 930 nM | > 200 mg/kg | 245 mg/kg |
| NCC(=O)Nc1ccc(Cl)cc1C(=O)c1ccccc1Cl | 4.8 nM | 3.8 mg/kg |  |
| CN1C(=O)CN=C(c2c(Cl)cccc2Cl)c2cc(Cl)ccc21 | 7 nM | 18.9 mg/kg |  |
| CN(C(=O)CN)c1ccc(Cl)cc1C(=O)c1ccccc1 | 9.9 nM | 1 mg/kg |  |
| O=C1CN=C(c2ccccc2Cl)c2cc(Cl)ccc2N1 [DELORAZEPAM] | 2.8 nM | 0.26 mg/kg |  |
| CN1C(=O)CN=C(c2ccccc2)c2cc(Cl)ccc21 [DIAZEPAM] |  | 1.2 mg/kg |  |
| O=C1CN=C(c2c(Cl)cccc2Cl)c2cc(Cl)ccc2N1 [RO-223294] | 5.5 nM | 6 mg/kg |  |
